From publication PMC6429183, “Identification of Compounds That Inhibit Estrogen-Related Receptor Alpha Signaling Using High-Throughput Screening Assays” (Molecules, 2019)
“And” between values parts separate entries of the source, which are not always exact repeats. Identical values can stand only once. Like-named read-outs stand apart in the source and are kept apart here.

What was measured:
cytochrome c = assay: qRT-PCR mRNA expression of ERR downstream gene cytochrome c; type: cell-based; details: ERR reporter cells, vs GAPDH, DMSO = 0%
Method: (§1) Total RNA was isolated from treated ERR reporter cells using an RNeasy Mini Kit (Qiagen, Germantown, MD, USA), homogenized using a QIAshredder (Qiagen), and reverse transcribed with a High-Capacity RNA-to-cDNA™ Kit (ThermoFisher Scientific, Inc.) following the manufacturers’ instructions. Expression of ERRα, COX8α, IDH3α, PPARα, COX4I1, and cytochrome c genes was normalized against GAPDH. All primers were purchased from ThermoFisher Scientific, Inc. Real-time PCR assays were performed in 384-well plates on a QuantStudio 5 (Applied Biosystems, Foster City, CA, USA) with TaqMan™ Gene Expression Master Mix (ThermoFisher Scientific, Inc.). Induction values were calculated using the equation: Fold = 2^ΔΔCt, where ΔCt represents the differences in cycle threshold numbers between each of the target genes and GAPDH, and ΔΔCt represents the relative change in these differences between control and treatment groups. Experimental data are presented as a mean of triplicate determinations ± SD. Statistical comparisons were made by t-test, while the statistical significance was set at p values of <0.05 (light blue), <0.01 (medium blue), and <0.001 (dark blue).

COX4I1 = assay: qRT-PCR mRNA expression of ERR downstream gene COX4I1; type: cell-based; details: ERR reporter cells, vs GAPDH, DMSO = 0%
Method: as §1, with “Experimental data are presented as a mean of triplicate determinations ± SD. Statistical comparisons were made by t-test, while the statistical significance was set at p values of <0.05 (light blue), <0.01 (medium blue), and <0.001 (dark blue).” left out

[1] = biological target: T1, ERRα with PGC-1α (PGC/ERR pathway) (Homo sapiens, UniProt P11474); assay: PGC/ERR reporter (luciferase) qHTS assay, PGC/ERR-HEK293; details: for EC50: mean ± SD, triplicate; for PGC/ERR-HEK293 Follow-Up Efficacy: follow-up screen; for PGC/ERR-HEK293 Follow-Up Efficacy / PGC/ERR-HEK293 Primary Efficacy: negative = antagonism, positive = agonism; for activity in the ERR/PGC assay: in words; for PGC/ERR-HEK293 Primary Efficacy: primary qHTS
T1 sequence (P11474 1-423): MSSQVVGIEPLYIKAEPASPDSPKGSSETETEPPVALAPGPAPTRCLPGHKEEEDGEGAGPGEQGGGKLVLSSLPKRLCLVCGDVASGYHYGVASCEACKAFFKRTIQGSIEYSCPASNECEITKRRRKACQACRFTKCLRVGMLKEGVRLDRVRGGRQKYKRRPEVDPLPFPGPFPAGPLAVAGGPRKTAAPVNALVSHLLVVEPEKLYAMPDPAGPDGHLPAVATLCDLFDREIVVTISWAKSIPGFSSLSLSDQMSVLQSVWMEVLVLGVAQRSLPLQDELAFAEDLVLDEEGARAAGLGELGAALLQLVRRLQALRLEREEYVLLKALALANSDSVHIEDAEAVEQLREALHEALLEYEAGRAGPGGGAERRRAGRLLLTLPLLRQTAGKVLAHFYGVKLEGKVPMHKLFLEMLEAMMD

[2] = tested on: ERR reporter HEK293 cells; assay: CellTiter-Fluor cell viability assay multiplexed with ERR reporter assay; type: cell-based
Method: (§2) ERR or PGC/ERR reporter HEK293 cells suspended in culture medium without puromycin were dispensed at 2500 cells/5 μL/well in tissue culture–treated 1536-well white assay plates (Greiner Bio-One North America, Monroe, NC, USA) using a Thermo Scientific Multidrop Combi (ThermoFisher Scientific, Inc.). […] After the cells were incubated at 37 °C with 5% CO2 for 6 h, 23 nL of compounds or control, XTC790, was transferred into the assay plates using a Wako Pintool station (Wako Automation, San Diego, CA, USA). The assay plates were incubated at 37 °C for 18 h, followed by the addition of 5 μL ONE-Glo luciferase reagent (Promega, Madison, WI, USA) using a Flying Reagent Dispenser (Aurora Discovery, Carlsbad, CA, USA). After 30 min of incubation at room temperature, the luminescence intensity of the assay plates was quantified using a ViewLux plate reader (PerkinElmer, Shelton, CT, USA). The assays were performed three times for each compound concentration. These ERR and PGC/ERR reporter assays were multiplexed with the CellTiter-Fluor Cell Viability Assay (Promega), a fluorescence-based cell viability assay, to assess compound cytotoxicity.
The qHTS data were analyzed as described previously. […] The DMSO-only compound plates at the beginning and end of the compound plate stack were used to correct the data set by applying an in-house pattern correction algorithm. The half maximum inhibition values (IC50) for each compound and maximum response (efficacy) values were obtained by fitting the concentration-response curves of each compound to a four-parameter Hill equation [91]. […] For each reading, the activity outcome of a test compound was first categorized by the average curve rank from the triplicate runs and the reproducibility calls. The final activity outcome of each compound was based on the ERR antagonist readout activity and cell viability counter screen.

[3] = biological target: T2, estrogen-related receptor alpha (ERRα) (Homo sapiens, UniProt P11474); assay: ERR reporter (luciferase) antagonist qHTS assay, ERR-HEK293; details: for ERR-HEK293 Follow-Up Efficacy: follow-up screen; for ERR-HEK293 Follow-Up Efficacy / ERR-HEK293 Primary Efficacy: relative to XCT790 = −100%; for ERR-HEK293 Primary Efficacy: primary qHTS, DMSO = 0%
T2 sequence (P11474 1-423): T1 sequence (P11474 1-423)

PPARα = assay: qRT-PCR mRNA expression of ERR downstream gene PPARα; type: cell-based; details: ERR reporter cells, vs GAPDH, DMSO = 0%
[4] = tested on: PGC/ERR reporter HEK293 cells; assay: CellTiter-Fluor cell viability assay multiplexed with PGC/ERR reporter assay; type: cell-based; details: for EC50: Homo sapiens
Method: as §2
The qHTS data were analyzed as described previously. Each titration point was normalized relative to the positive control compound (XCT790 = −100%) and DMSO-only wells (0%) according to the following equation: % Activity = [(Vcompound − VDMSO)/(VDMSO − Vpos)] × 100, where Vcompound denotes the compound well values, Vpos denotes the median value of the positive control wells, and VDMSO denotes the median values of the DMSO-only wells. The DMSO-only compound plates at the beginning and end of the compound plate stack were used to correct the data set by applying an in-house pattern correction algorithm. The half maximum inhibition values (IC50) for each compound and maximum response (efficacy) values were obtained by fitting the concentration-response curves of each compound to a four-parameter Hill equation [91]. Compounds were designated as Class 1–4 according to the type of concentration–response curve observed. For each reading, the activity outcome of a test compound was first categorized by the average curve rank from the triplicate runs and the reproducibility calls. The final activity outcome of each compound was based on the ERR antagonist readout activity and cell viability counter screen.

[5] = tested on: Nrf2/antioxidant response element (ARE); assay: Nrf2/ARE-HepG2 β-lactamase reporter agonist assay; type: cell-based; details: agonist mode, heatmap outcome
Method: After the assay plates were incubated at 37 °C for 5–6 h, 23 nL of compounds dissolved in DMSO or positive controls were transferred to the assay plates via a Wako Pintool station (Wako). Except for ARE and p53, all other assays received 1 µL/well agonist (10 nM R1881 for AR; 0.5 and 5 nM β-estradiol for ERα and ERβ respectively; 300 µM CDCA for FXR; 50 nM Rosiglitazone for PPARγ; and 5 nM R5020 for PR) or assay medium using a Flying Reagent Dispenser (FRD). The assay plates were incubated for 16 h (AR, Nrf2/ARE, ERβ, FXR, p53, and PR), 17 h (PPARγ), or 18 h (ERα) at 37 °C, and 1 µL/well LiveBLAzer™ FRET-B/G CCF4-AM substrate (ThermoFisher Scientific, Inc.) detection mix was added using an FRD and the plates were incubated at room temperature for 2 h. […] Data were expressed as the ratio of 460/530 nm emission values.

IDH3α = assay: qRT-PCR mRNA expression of ERR downstream gene IDH3α; type: cell-based; details: ERR reporter cells, vs GAPDH, DMSO = 0%
Method: as §1

COX8α = assay: qRT-PCR mRNA expression of ERR downstream gene COX8α; type: cell-based; details: 60 nM; ERR reporter cells; vs GAPDH, DMSO = 0%
Method: as §1

[6] = PGC/ERR-HEK293 Follow-Up EC50, follow-up screen
[7] = PGC/ERR-HEK293 Primary EC50, primary qHTS, 18 h
[8] = Homo sapiens, HEK293, follow-up screen, viability, read-out: ERR-HEK293 Follow-Up Viability EC50 (converted)
[9] = Homo sapiens, HEK293, primary qHTS, viability counter screen, read-out: ERR-HEK293 Primary Viability EC50 (converted)
[10] = ERR-HEK293 Follow-Up EC50, follow-up (confirmation) screen, mean ± SD, triplicate
[11] = ERR-HEK293 Primary EC50, primary qHTS, 18 h, 15 concentrations, mean ± SD, triplicate
[12] = HEK293, follow-up screen, read-out: PGC/ERR-HEK293 Follow-Up Viability EC50 (converted)
[13] = HEK293, primary qHTS, read-out: PGC/ERR-HEK293 Primary Viability EC50 (converted)

SMILES | EC50 [1, 6] | EC50 [1, 7] | PGC/ERR-HEK293 Follow-Up Efficacy [1] | activity in the ERR/PGC assay [1] | PGC/ERR-HEK293 Primary Efficacy [1] | EC50 [2, 8] | EC50 [2, 9] | EC50 [3, 10] | EC50 [3, 11] | ERR-HEK293 Follow-Up Efficacy [3] | EC50 [4, 12] | EC50 [4, 13] | activity in the Nrf2-ARE assay [5] | ERR-HEK293 Primary Efficacy [3] | also measured
CC(C)C[C@H](NC(=O)[C@H](Cc1ccccc1)NC(=O)c1cnccn1)B(O)O [Bortezomib] | 9.62 ± 4.52 nM | 16.9 ± 5.54 nM | −116 ± 12.7% | antagonism | −92.2 ± 11.8% | 78 nM | 65.6 nM | 16.7 ± 6.08 nM | 17 ± 7.81 nM | −125 ± 11.0% | 64.3 nM | 62.8 nM | active agonists | – | Percent inhibition of mRNA gene expression, Cytochrome C (cytochrome c; 20 µM): 48.3% and 48.3 ± 1.92%; Percent inhibition of mRNA gene expression, COX4I1 (COX4I1; 20 µM): 35.3 ± 3.49%; IC50 ([2]; Homo sapiens, HEK293, primary screen, concurrent with ERR antagonist assay): ~66 nM; Percent inhibition of mRNA gene expression, PPARα (PPARα; 20 µM): 14.0 ± 5.17%; Percent inhibition of mRNA gene expression, IDH3α (IDH3α; 20 µM): 17.6% and 17.6 ± 4.66%
CC(C)C[C@H](NC(=O)[C@H](CCc1ccccc1)NC(=O)CN1CCOCC1)C(=O)N[C@@H](Cc1ccccc1)C(=O)N[C@@H](CC(C)C)C(=O)[C@@]1(C)CO1 [Carfilzomib] | 189 ± 39.6 nM | 61.5 ± 19.8 nM | −150 ± 8.02% | antagonism | −121 ± 7.36% | 274 nM | 178 nM | 61.7 ± 7.86 nM | 55.2 ± 3.74 nM | −126 ± 10.9% | 471 nM | 1360 nM | active agonists | −107% and −107 ± 2.77% | Percent inhibition of mRNA gene expression, Cytochrome C (cytochrome c; 60 nM): 44.2% and 44.2 ± 0.70%; Percent inhibition of mRNA gene expression, COX4I1 (COX4I1; 60 nM): 37.8 ± 5.12%; EC50 ([3]; potency, ERR antagonist assay, primary screen): 55 nM; Percent inhibition of mRNA gene expression, PPARα (PPARα; 60 nM): 7.39 ± 4.61%; Percent inhibition of mRNA gene expression, COX8α (COX8α): 39.6% and 39.6 ± 1.81%; Percent inhibition of mRNA gene expression, IDH3α (IDH3α; 60 nM): 1.73 ± 0.76%
COc1cc([C@@H]2c3cc4c(cc3[C@@H](O[C@@H]3O[C@@H]5CO[C@@H](C)O[C@H]5[C@H](O)[C@H]3O)[C@H]3COC(=O)[C@H]23)OCO4)cc(OC)c1O [Etoposide] | 10700 ± 2440 nM | 2100 ± 526 nM | 89.3 ± 19.5% | agonist activity | 62.9 ± 2.71% | – | 56300 nM | 8120 ± 4420 nM | 9240 ± 8560 nM | −88.9 ± 6.62% | – | 56300 nM | active agonists | −115 ± 6.85% | Percent inhibition of mRNA gene expression, Cytochrome C (cytochrome c; 18 µM): 6.55 ± 3.18%; ERR-HEK293 Follow-Up Viability EC50 ([2]; follow-up screen, viability): Inactive; activity in the ERR assay ([3]; in words): antagonistic activity; PGC/ERR-HEK293 Follow-Up Viability EC50 ([4]; follow-up screen): Inactive; Percent inhibition of mRNA gene expression, IDH3α (IDH3α; 18 µM): 7.19 ± 23.5%
